# Laboratory results as given in US20260115331A1, “PET IMAGING OF BACTERIAL INFECTION WITH A PET PROBE” (Mayo Foundation for Medical Education and Research, priority 2022, published 2026).
# What was measured:
# E coli = assay: Biodistribution in thigh infected mice (E. coli) at 120 min post injection; type: in vivo; conditions: n = 4, 2 h post infection with E coli
# Text: The feasibility of the developed PET probe [^68Ga]Ga-H3P2O8 in a mouse model of thigh infection as well as uptake in E. coli has been evaluated. […] The biodistribution of developed PET probe in normal and in thigh infected mice has been assessed (see FIG. 11). […] Micro-PET imaging of normal and thigh-infected mice has also been performed. The site of bacterial infection was evident on micro-PET images (see FIG. 13) with arrows in contrast to the non-infected group of mice. The bacterial site of infection on micro-PET images was confirmed by bacterial culture performed on the biopsied sample. Micro-PET imaging was performed at different time intervals to optimize imaging time.
# [1] = PET/CT image analysis (SUV) in normal rat model; type: in vivo, rats; conditions: for SUV (Average ± SD), Normal Tibia: Normal group
# Protocol: (§1) The PET probe [^68Ga]Ga-H3P2O8 was evaluated in methicillin-resistant S. aureus (MRSA) foreign-body osteomyelitis in the left tibia with a stainless steel Kirschner wire (K-wire) implant in male Wister rats, following a previously established protocol [Ref. 17]. Briefly, a 1 cm incision was made on the medial tibia and the bone exposed. A 1.5 mm hole was drilled, 0.01 mL of arachidonic acid (a sclerosing agent) and 0.05 mL of a suspension containing MRSA DRL-6169 at 10^8 cfu/mL was injected into the bone. A 5 mm threaded stainless-steel K-wire was inserted. The hole was closed with dental gypsum and the site closed. After implantation, the muscle and fascia were closed with 3-0 vicryl using simple interrupted sutures. The skin was closed with sterile wound clips and VetBond. The wound was sprayed with Aluspray and Chew Guard. After 7 days of implantation of wire, the animal was put on iron-deficient diet for 7 days and on the day of imaging, the animals were fasted for 4 hours prior to the injection of the PET probe. [^68Ga]Ga-H3P2O8 (32.81±6.28 MBq, n=18) were injected into the rat model via tail vein injection. The rat model was either a normal rat model or an osteomyelitis foreign body rat model or an inflamed foreign body rat model. PET/CT images were acquired at 15 minutes, 30 minutes, 60 minutes, and 120 minutes post-injection using Siemens Inveon MicroPET/CT Scanner (see FIGS. 17, 18, and Table 2).
# (§2) The acquired PET images were visualized and analyzed for quantifying standardized uptake value (SUV) using image analysis software—MIM 7 software and PMOD. Following final imaging at 120 minutes post-injection, the animal was euthanized, and major organs and infected and inflamed tibia were extracted for gamma counting for ex-vivo biodistribution analysis (see FIG. 22). At the end of last imaging session, rats were euthanized by cardiectomy, and the operated tibia with K-wire or contralateral tibia were aseptically removed. Following removal, tibias were weighed, and Ga-68 radioactivity was counted in 2480 Wizard2 automatic gamma counter for ex-vivo biodistribution assessment. The tibias were then frozen to −80° C. The frozen tibia from each animal was crushed aseptically using a bone pulverizer chilled at −80° C. The crushed tibia without K wire was weighed and vortexed in 1 mL sterile saline. The K wire was also vortexed in 1.0 mL sterile saline separately. The vortexed tibia and K-wire saline suspension were sonicated for 5 minutes. After sonication, 1:10 serial dilutions were prepared in saline and 0.1 mL of each dilution was plated in Trypticase Soy Agar plates with 5% Sheep Blood (TSA II). After 24 hours of incubation at 37° C., the bacterial cultures in tibia suspension and K-wire suspension were quantified. In the 2-week-old osteomyelitis model used in the study, the infected tibia contained 7.00±0.19 log10 cfu/g tibia (n=10) and 5.41±0.40 log10 cfu/K-wire (n=10).
# [2] = PET image analysis (SUV) of inflamed tibia in foreign body inflammation rat model; type: in vivo, rats; conditions: each time point up to 120 minutes (FIG. 27)
# Protocol: as §1
# To assess the preferential uptake of novel [^68Ga]Ga-H3P2O8 PET probe in infection as compared to inflammation, the same surgery and imaging was performed but omitted the MRSA. […] The probe [^68Ga]Ga-H3P2O8 was also successfully used to detect thigh infection caused by E coli in a mouse model.
# To further investigate the selectivity of [^68Ga]Ga-H3P2O8 for imaging infection over inflammation, this novel probe was compared to other PET imaging probes, [^68Ga]Ga-Citrate and [^18F]FDG in an inflammation model. In a side-by-side study, all three probes were used to image inflammation (i.e., an inflamed tibia) in an osteomyelitis foreign body rat model.
# [3] = system: Klebsiella pneumoniae (K. pneumoniae); assay: Ex vivo biodistribution in osteomyelitis foreign body rat model with K. pneumoniae infection vs inflammation model; set-up: species or system rats; conditions: 120 minutes post-injection, comparable SUVs except bladder and feces (FIG. 34)
# Protocol: as §2, with “In the 2-week-old osteomyelitis model used in the study, the infected tibia contained 7.00±0.19 log10 cfu/g tibia (n=10) and 5.41±0.40 log10 cfu/K-wire (n=10).” left out
structure (smiles),measurement,setting,value
"O=P(O)(O)[O][Ga]1[O]P(=O)(O)[O]1 [[^68Ga]Ga-H3P2O8, [^68Ga]Ga-hydrogen bisphosphate]","SUV ± STD, Adipose",E coli; Adipose,0.34 ± 0.34 SUV
same,"SUV ± STD, Bladder",E coli; Bladder,3.11 ± 3.0 SUV
same,"SUV ± STD, Blood",E coli; Blood,1.83 ± 0.20 SUV
same,"SUV ± STD, Bone",E coli; Bone,2.73 ± 1.12 SUV
same,"SUV ± STD, Brain",E coli; Brain,0.81 ± 1.5 SUV
same,"SUV ± STD, Cecum",E coli; Cecum,1.74 ± 0.55 SUV
same,"SUV ± STD, Eye",E coli; Eye,3.86 ± 1.71 SUV
same,"SUV ± STD, Feces",E coli; Feces,0.93 ± 0.43 SUV
same,"SUV ± STD, Gut",E coli; Gut,1.78 ± 0.10 SUV
same,"SUV ± STD, Heart",E coli; Heart,0.61 ± 0.14 SUV
same,"SUV ± STD, Infected Thigh",E coli; Infected Thigh,1.12 ± 0.43 SUV
same,"SUV ± STD, Kidney-1",E coli; Kidney-1,3.24 ± 1.19 SUV
same,"SUV ± STD, Kidney-2",E coli; Kidney-2,3.28 ± 2.10 SUV
same,"SUV ± STD, Liver",E coli; Liver,2.02 ± 0.89 SUV
same,"SUV ± STD, Lung-1",E coli; Lung-1,2.13 ± 0.54 SUV
same,"SUV ± STD, Lung-2",E coli; Lung-2,3.03 ± 0.53 SUV
same,"SUV ± STD, Normal Thigh",E coli; Normal Thigh,0.25 ± 0.05 SUV
same,"SUV ± STD, Skin",E coli; Skin,0.88 ± 0.63 SUV
same,"SUV ± STD, Spleen",E coli; Spleen,0.80 ± 0.69 SUV
same,"SUV ± STD, Stomach",E coli; Stomach,0.48 ± 0.14 SUV
same,"SUV (Average ± SD), Normal Tibia","[1]; n = 4, 15 min post-injection",0.76 ± 0.03 SUV
same,"SUV (Average ± SD), Normal Tibia","[1]; n = 4, 30 min post-injection",0.76 ± 0.09 SUV
same,"SUV (Average ± SD), Normal Tibia","[1]; n = 4, 60 min post-injection",0.80 ± 0.09 SUV
same,"SUV (Average ± SD), Normal Tibia","[1]; n = 4, 120 min post-injection",0.89 ± 0.16 SUV
same,"SUV (Average ± SD), Muscle in Normal group","[1]; n = 4, 15 min post-injection",0.35 ± 0.10 SUV
same,"SUV (Average ± SD), Muscle in Normal group","[1]; n = 4, 30 min post-injection",0.50 ± 0.12 SUV
same,"SUV (Average ± SD), Muscle in Normal group","[1]; n = 4, 60 min post-injection",0.49 ± 0.10 SUV
same,"SUV (Average ± SD), Muscle in Normal group","[1]; n = 4, 120 min post-injection",0.48 ± 0.09 SUV
same,difference in mean SUV between the probes in inflamed tibia,[2],no significant difference
same,distribution in organs/excrement of infected model compared with inflammation model,[3],similar
